# Patent publication US20190100731A1, “EX-VIVO […] MODEL, METHODS OF PRODUCING SAME AND USES THEREOF” (The State of Israel, Ministry of Agriculture & Rural …, priority 2016, published 2019)
# Entries after “also recorded” stand apart in the source; their conditions may differ.
# Assays:
# [1] = system: IL-6; experiment: IL-6 production (ELISA) in ex-vivo intestinal biopsies; type: cell-based, human; details: D/C treated biopsies of patient P6; 18 hours; pure CBD 25 μM / 16.6 μM (FIG. 5)
# Procedure: (§1) Biopsies (3 mm3) obtained from inflamed or healthy intestines and placed in PBS were treated with a Dispase (1 U/ml, Cat # 07923, StemCell Technologies Inc.) and Collagenase Type 1 (0.5 mg/ml with an activity of 0.5-2 U/mg Cat # 07902, StemCell Technologies Inc.) solution. Tubes were then incubated for 2-3h at 37° C.
# After incubation, the tubes containing the biopsies were centrifuged at 5000 rpm for 1 minute. Then the supernatants were removed and tissues were washed three times with Hank's balance salt solution (HBSS). After each wash tubes were centrifuged as mentioned above. Then the tissues were placed on small Petri dish and cut into 2-3 pieces with a clean scalpel. […] The following cytokines were measured: TNF Alfa (the supernatant was taken after 1-3 h), for the rest of the cytokines and interleukins supernatant was analyzed after 16 hours. The following factors were analyzed: IFN gamma, TFG beta, IL-10, IL-23/IL-23R, IL-12, IL-1 (IL 113), IL 2, IL-8/IL-8R, IL-6, IL-17, IL-13, IL-5, IL-4, IL-3. […] After all samples are taken, tissue viability will be assessed by addition of Alamar blue (Risazurin) as described below. […]
# [2] = system: IL-8; experiment: IL-8 secretion (ELISA) in D/C-treated ex-vivo intestinal biopsies; type: cell-based, human; design: IL-8 secretion Value: unit not given here
# Procedure: as §1
# After incubation, the tubes containing the biopsies were centrifuged at 5000 rpm for 1 minute. Then the supernatants were removed and tissues were washed three times with Hank's balance salt solution (HBSS). After each wash tubes were centrifuged as mentioned above. Then the tissues were placed on small Petri dish and cut into 2-3 pieces with a clean scalpel. Explants were cultured in groups of 2-3 with the villus surface facing up on microporous membranes (0.45-m pore size) contained in either Millicell-HA or organotypic tissue culture inserts (Millipore) placed inside 6-well plastic tissue culture dishes (Costar 3506) along with 1.5 ml of tissue culture medium. The tissue culture medium was Dulbecco's modified Eagle's medium supplemented with 10% heat-inactivated fetal calf serum, penicillin (100units/ml), streptomycin (100 μg/ml), leupeptin (50 μg/ml), PMSF (1 mM), soybean trypsin inhibitor (50 μg/ml). In cases dexamethasone (DX) was included in the media, its concentration was 200 μg/ml. This is followed by treating the samples with Control and extracts treatments (cannabis or other). In cases TNF-α is added to induce ILs expression the concentration was 50 μg/ml. Cultures are then incubated at 37° C. and gassed hourly with 95% oxygen and 5% carbon dioxide. For evaluation of TNF-α expression, supernatants are taken after 1 h of incubation. For other ILs, supernatants are taken after overnight incubation unless mentioned differently. The supernatants from biopsies are used for determination of cytokine profile by measuring their levels using commercial ELISA Kits. The following cytokines were measured: TNF Alfa (the supernatant was taken after 1-3 h), for the rest of the cytokines and interleukins supernatant was analyzed after 16 hours. The following factors were analyzed: IFN gamma, TFG beta, IL-10, IL-23/IL-23R, IL-12, IL-1 (IL 113), IL 2, IL-8/IL-8R, IL-6, IL-17, IL-13, IL-5, IL-4, IL-3. Levels of secreted factors from inflamed and healthy tissue and from cannabis treated and not treated tissue were compared. After all samples are taken, tissue viability will be assessed by addition of Alamar blue (Risazurin) as described below.
# Biopsies obtained from both healthy and sick intestinal samples of two patients were cultured overnight incubation using the full protocol (D/C) described in material and methods section hereinabove. Seven different cytokines were evaluated following overnight incubation using specific ELISA kits manufactured by R&D Systems.
# The cytokines tested included TNF-α, IL-6, IL-8, IL-10, IL-12, IL-17 and IL-27. In addition to the ethanolic cannabis extract was tested for its ability to reduce inflammation. After supernatant sampling, additional media was added to the wells and Resazurin (alamar blue) viability assay was carried out. […] Responsive cytokines that show significant levels of expression (FIGS. 1A-F) on one hand vs. other ILs in which basal level were obtained which didn't allow a clear conclusion (FIGS. 2A-D).
# Several more experiments were done to corroborate the above results. These are summarized in Table 1 below(C2F and F7 and dexamethasone).
# [3] = biopsy PH-13-H: healthy patient 13, healthy tissue
# [4] = biopsy PH-15-H: healthy patient 15, healthy tissue
# [5] = biopsy PS-3-H: sick patient 3, healthy tissue
# [6] = biopsy PS-3-S: sick patient 3, sick tissue
# [7] = biopsy PS-4-H: sick patient 4, healthy tissue
# [8] = biopsy PS-4-S: sick patient 4, sick tissue
# [9] = biopsy PS-7-H: sick patient 7, healthy tissue
# [10] = biopsy PS-7-S: sick patient 7, sick tissue
# [11] = biopsy PS-8-H: sick patient 8, healthy tissue
# [12] = biopsy PS-11-H: sick patient 11, healthy tissue
# [13] = biopsy PS-11-S: sick patient 11, sick tissue
# [14] = biopsy PS-12-H: sick patient 12, healthy tissue
# [15] = biopsy PS-12-S: sick patient 12, sick tissue
# [16] = biopsy PS-14-H: sick patient 14, healthy tissue
# [17] = biopsy PS-14-S: sick patient 14, sick tissue
# [18] = biopsy PS-16-H: sick patient 16, healthy tissue
# [19] = biopsy PS-16-S: sick patient 16, sick tissue
# [20] = biopsy PS-17-H: sick patient 17, healthy tissue
# [21] = biopsy PS-17-S: sick patient 17, sick tissue
# [22] = biopsy PS-18-H: sick patient 18, healthy tissue
# [23] = biopsy PS-18-S: sick patient 18, sick tissue
# [24] = biopsy PS-19-H: sick patient 19, healthy tissue
# [25] = biopsy PS-19-S: sick patient 19, sick tissue
structure (smiles),measurement,setting,value
"C=C(C)[C@@H]1CCC(C)=C[C@H]1c1c(O)cc(CCCCC)cc1O [CBD, Cannabidiol]",anti-inflammatory activity (IL-6 production),[1],doesn't harbor any anti-inflammatory activity; also recorded: no anti-inflammatory activity
"C[C@@H]1C[C@H]2[C@@H]3CCC4=CC(=O)C=C[C@]4(C)[C@@]3(F)[C@@H](O)C[C@]2(C)[C@@]1(O)C(=O)CO [Dexamethasone, dexamethasone]",IL-8 secretion % Reduction from NT,[2]; [3],−1.1%
same,IL-8 secretion Value,[2]; [3],844.6
same,IL-8 secretion % Reduction from NT,[2]; [4],46.4%
same,IL-8 secretion Value,[2]; [4],451.9
same,IL-8 secretion % Reduction from NT,[2]; [5],32.4%
same,IL-8 secretion Value,[2]; [5],670.1
same,IL-8 secretion % Reduction from NT,[2]; [6],17.5%
same,IL-8 secretion Value,[2]; [6],742.6
same,IL-8 secretion % Reduction from NT,[2]; [7],4.3%
same,IL-8 secretion Value,[2]; [7],915.4
same,IL-8 secretion % Reduction from NT,[2]; [8],78.3%
same,IL-8 secretion Value,[2]; [8],216.9
same,IL-8 secretion % Reduction from NT,[2]; [9],14.7%
same,IL-8 secretion Value,[2]; [9],745.1
same,IL-8 secretion % Reduction from NT,[2]; [10],−5.6%
same,IL-8 secretion Value,[2]; [10],793.9
same,IL-8 secretion % Reduction from NT,[2]; [11],69.5%
same,IL-8 secretion Value,[2]; [11],215.3
same,IL-8 secretion % Reduction from NT,[2]; [12],94.8%
same,IL-8 secretion Value,[2]; [12],34.9
same,IL-8 secretion % Reduction from NT,[2]; [13],83.3%
same,IL-8 secretion Value,[2]; [13],74.2
same,IL-8 secretion % Reduction from NT,[2]; [14],43.7%
same,IL-8 secretion Value,[2]; [14],530.6
same,IL-8 secretion % Reduction from NT,[2]; [15],4.0%
same,IL-8 secretion Value,[2]; [15],817.8
same,IL-8 secretion % Reduction from NT,[2]; [16],44.2%
same,IL-8 secretion Value,[2]; [16],485.8
same,IL-8 secretion % Reduction from NT,[2]; [17],24.1%
same,IL-8 secretion Value,[2]; [17],666.8
same,IL-8 secretion % Reduction from NT,[2]; [18],38.3%
same,IL-8 secretion Value,[2]; [18],166.5
same,IL-8 secretion % Reduction from NT,[2]; [19],83.6%
same,IL-8 secretion Value,[2]; [19],96.7
same,IL-8 secretion % Reduction from NT,[2]; [20],68.9%
same,IL-8 secretion Value,[2]; [20],303.5
same,IL-8 secretion % Reduction from NT,[2]; [21],0.5%
same,IL-8 secretion Value,[2]; [21],1064.0
same,IL-8 secretion % Reduction from NT,[2]; [22],66.4%
same,IL-8 secretion Value,[2]; [22],331.0
same,IL-8 secretion % Reduction from NT,[2]; [23],36.1%
same,IL-8 secretion Value,[2]; [23],484.9
same,IL-8 secretion % Reduction from NT,[2]; [24],32.6%
same,IL-8 secretion Value,[2]; [24],86.0
same,IL-8 secretion % Reduction from NT,[2]; [25],64.2%
same,IL-8 secretion Value,[2]; [25],80.5
